Experimental data as given in publication PMC9248904, “Genomic and Chemical Decryption of the Bacteroidetes Phylum for Its Potential to Biosynthesize Natural Products” (Microbiology Spectrum, 2022).
≈ marks a conversion by molar mass, not a printed value. Where two headings read alike, the source gives them in different places. *1 amine or outer side, *2 acyl side, *3 side chain or, on linkers, in order; H or OH if unused. Where a SMILES comes first, the peptide text is derived from it. Bridges are numbered along the chain shown (N, C = ends). [ ]: non-standard residue; d: D form. The star is where a group is joined. Phe(3R-OH) = O=C([C@@H](N[*:1])[C@H](O[*:3])c1ccccc1)[*:2]; Asp(3S-OH) = N[C@H](C(=O)O)[C@H](O)C(=O)O; Ile(3R-OH) = CC[C@@](C)(O)[C@H](N)C(=O)O; d(aIle) = CC[C@H](C)[C@@H](N)C(=O)O; d(aThr) = C[C@@H](O)[C@@H](N)C(=O)O; X1 = CC(C)CCCCCC(N)C(C)C(=O)*; NMeV = CN[C@H](C(=O)O)C(C)C; X2 = CCCCCCCC(N)C(C)C(=O)*; Dap = NC[C@H](N)C(=O)O

Key:
[1] = system: Fusarium oxysporum ATCC 7601; assay: microbe, parasite or virus in culture; type: cell-based
Experimental: (§1) The MIC was determined by broth microdilution method in 96-well plates with 100 µL assay volume per well following EUCAST instructions ([116], [117]) for E. coli ATCC 35218, E. coli ATCC 25922 ΔTolC, E. coli MG1655, Pseudomonas aeruginosa ATCC 27853, P. aeruginosa PAO750, Klebsiella pneumoniae ATCC 13883, Moraxella catarrhalis ATCC 25238, Acinetobacter baumannii ATCC 19606, Bacillus subtilis DSM 10, Staphylococcus aureus ATCC 25923, and Micrococcus luteus DSM 20030. Listeria monocytogenes DSM 20600 (1 day of incubation at 37°C) and Mycobacterium smegmatis ATCC 607 (2 days of incubation at 37°C) were grown in BHI broth supplemented with 1% (vol/vol) Tween 80. Candida albicans FH2173 was grown in MHIIB over 2 days of incubation at 37°C (pre-culture 2 days at 28°C). Approximate inoculation cell density for all strains was 500,000 CFU/mL, except 1,000,000 CFU/mL were used for M. smegmatis and C. albicans. For all fungal screenings 100,000 spores/mL were used and incubated at 37°C for Aspergillus flavus ATCC 9170 (MHIIB) and 25°C for Z. tritici MUCL45407 (4 g/L yeast extract, 4 g/L malt extract, 4 g/L sucrose) and Fusarium oxysporum ATCC 7601 (potato dextrose broth, Sigma). Growth inhibition was detected by optical density (600 nm) or for M. luteus, L. monocytogenes, C. albicans, M. smegmatis, and all fungi by quantification of free ATP using BacTiter-Glo after 24 to 48 h (72 h for Z. tritici). All MIC assays were performed at least in triplicate. FE(III)-citrate was added at molar ratios of 1:1 to samples in DMSO to test compounds in their iron bound conformation.

Z. tritici MUCL45407 = assay: microbe, parasite or virus in culture; type: cell-based
Experimental: as §1

Candida albicans FH2173 = assay: microbe, parasite or virus in culture; type: cell-based; settings: C. albicans FH2173, at least triplicate; for MIC: MHIIB, 2 days 37°C, BacTiter-Glo, Iron -
Experimental: as §1

[2] = system: Aspergillus flavus ATCC 9170; assay: microbe, parasite or virus in culture; type: cell-based
Experimental: as §1

Bacillus subtilis DSM 10 = type: cell-based; settings: DSM 10
Experimental: as §1

[3] = system: Staphylococcus aureus ATCC 25923; type: cell-based; settings: ATCC 25923
Experimental: as §1

[4] = system: Klebsiella pneumoniae ATCC 13883; type: cell-based; settings: ATCC 13883
Experimental: as §1

[5] = system: Micrococcus luteus DSM 20030; type: cell-based; settings: DSM 20030
Experimental: as §1

[6] = system: Pseudomonas aeruginosa ATCC 27853; type: cell-based; settings: ATCC 27853
Experimental: as §1

[7] = system: Acinetobacter baumannii ATCC 19606; type: cell-based; settings: ATCC 19606
Experimental: as §1

[8] = system: Moraxella catarrhalis ATCC 25238; type: cell-based; settings: ATCC 25238
Experimental: as §1

P. aeruginosa PAO750 = type: cell-based, Pseudomonas aeruginosa; settings: broth microdilution, 96-well, EUCAST, OD600, Iron -, at least triplicate
Experimental: as §1

E. coli MG1655 = type: cell-based, Escherichia coli; settings: broth microdilution, 96-well, EUCAST, OD600, Iron -, at least triplicate
Experimental: as §1

E. coli ATCC 35218 = type: cell-based, Escherichia coli; settings: ATCC 35218
Experimental: as §1

E. coli ATCC 25922 ΔTolC = type: cell-based, Escherichia coli; settings: broth microdilution, 96-well, EUCAST, OD600, Iron -, at least triplicate
Experimental: as §1

[9] = system: Mycobacterium smegmatis ATCC 607; assay: microbe, parasite or virus in culture; type: cell-based; settings: Mycolicibacterium smegmatis, ATCC607, 48 h; M. smegmatis ATCC 607; BHI broth + 1% Tween 80, 2 days 37°C; BacTiter-Glo; Iron -; at least triplicate; read-out: MIC
Experimental: as §1

[10] = Z. tritici MUCL45407, 25°C, 72 h, 100,000 spores/mL, BacTiter-Glo, Iron -, at least triplicate

`C[C@@H]1[C@H](O)[C@@H](C)/C=C/C=C/C=C/C=C/C=C/C=C/C=C/[C@H](O[C@@H]2O[C@H](C)[C@@H](O)[C@H](N)[C@@H]2O)C[C@@H]2O[C@](O)(C[C@@H](O)C[C@@H](O)[C@H](O)CC[C@@H](O)C[C@@H](O)CC(=O)O[C@H]1C)C[C@H](O)[C@H]2C(=O)O` [Amphotericin B, reference compound] gave an MIC ([1]; Fusarium oxysporum, ATCC7601, F. oxysporum ATCC 7601, potato dextrose broth, 25°C, 100,000 spores/mL, BacTiter-Glo, Iron -, at least triplicate, read-out: MIC) of 4 µg/mL (≈ 4.33 µM), an MIC (Z. tritici MUCL45407; Zymoseptoria tritici, MUCL45407, 72 h) of 0.031 µg/mL (≈ 0.0335 µM) and an MIC (Candida albicans FH2173; Candida albicans, 48 h, read-out: MIC) of 4 µg/mL (≈ 4.33 µM).
With `CC[C@H](C)[C@H]1NC(=O)[C@H]([C@H](O)c2ccccc2)NC(=O)[C@H]([C@H](O)C(=O)O)NC(=O)[C@@H](C)NC(=O)[C@H](NC(=O)[C@H](C(C)C)N(C)C(=O)C(C)C(N)CCCCCC(C)C)[C@@H](C)OC(=O)[C@H]([C@](C)(O)CC)NC(=O)[C@H]([C@H](O)C(=O)O)NC(=O)[C@H](CC(C)C)NC(=O)[C@H]([C@H](O)C(=O)O)NC(=O)[C@@H](CC(C)C)NC(=O)[C@H](CN)NC(=O)[C@@H](CCCCN)NC(=O)[C@H](CO)NC1=O` (stereo partly drawn) [Chitinopeptin A] (X1-[NMeV][d(aThr)][dA][Asp(3S-OH)][Phe(3R-OH)][d(aIle)]S[dK][Dap][dL][Asp(3S-OH)]L[Asp(3S-OH)][Ile(3R-OH)]; ester 2-C) the MIC ([1]; ATCC 7601) was greater than 64 µg/mL, the MIC (Z. tritici MUCL45407; [10]) was 16 µg/mL (≈ 8.84 µM) and the MIC ([2]; ATCC 9170) was greater than 64 µg/mL. The “MIC, iron bound form” value (Candida albicans FH2173; Iron +: Fe(III)-citrate added at molar ratio 1:1) was 32 µg/mL, the MIC (Candida albicans FH2173) was 4 µg/mL (≈ 2.21 µM) and the MIC (Candida albicans FH2173; listed as 1) was 4 to 8 µg/mL. For the same compound, the MIC (Bacillus subtilis DSM 10) was 4 µg/mL (≈ 2.21 µM), the “MIC, iron bound form” value (Bacillus subtilis DSM 10) was 8 µg/mL (≈ 4.42 µM) and the MIC [3] was greater than 64 µg/mL. It also gave an MIC [4] greater than 64 µg/mL, an MIC [5] of 32 µg/mL (≈ 17.7 µM) and an MIC [6] greater than 64 µg/mL. For the same compound, the MIC [7] was 16 µg/mL (≈ 8.84 µM), the MIC [8] was 2 µg/mL (≈ 1.11 µM) and the “MIC, iron bound form” value [8] was 4 µg/mL (≈ 2.21 µM). The MIC (P. aeruginosa PAO750) was greater than 64 µg/mL, the MIC (E. coli MG1655) was greater than 256 µg/mL and the MIC (E. coli ATCC 35218) was greater than 64 µg/mL. For the same compound, the MIC (E. coli ATCC 25922 ΔTolC) was greater than 64 µg/mL.
For `CCCCCCCC(N)C(C)C(=O)N(C)[C@H](C(=O)N[C@H]1C(=O)N[C@H](C)C(=O)N[C@@H]([C@H](O)C(=O)O)C(=O)N[C@@H]([C@H](O)c2ccccc2)C(=O)N[C@H]([C@@H](C)CC)C(=O)N[C@@H](CO)C(=O)N[C@H](CCCCN)C(=O)N[C@@H](CN)C(=O)N[C@H](CC(C)C)C(=O)N[C@@H]([C@H](O)C(=O)O)C(=O)N[C@@H](CC(C)C)C(=O)N[C@@H]([C@H](O)C(=O)O)C(=O)N[C@@H]([C@](C)(O)CC)C(=O)O[C@@H]1C)C(C)C` (stereo partly drawn) [Chitinopeptin B] (X2-[NMeV][d(aThr)][dA][Asp(3S-OH)][Phe(3R-OH)][d(aIle)]S[dK][Dap][dL][Asp(3S-OH)]L[Asp(3S-OH)][Ile(3R-OH)]; ester 2-C), the MIC ([1]; ATCC 7601) was greater than 64 µg/mL, the MIC (Z. tritici MUCL45407; [10]) was 16 µg/mL (≈ 8.91 µM) and the MIC ([2]; ATCC 9170) was greater than 64 µg/mL. The MIC (Candida albicans FH2173) was 8 µg/mL (≈ 4.46 µM), the MIC (Candida albicans FH2173; listed as 2) was 4 to 8 µg/mL and the MIC (Bacillus subtilis DSM 10) was 4 µg/mL (≈ 2.23 µM). It also gave an MIC [3] greater than 64 µg/mL, an MIC [5] of 32 µg/mL (≈ 17.8 µM) and an MIC [6] greater than 64 µg/mL. The MIC [7] was 64 µg/mL (≈ 35.7 µM), the MIC [8] was 2 µg/mL (≈ 1.11 µM) and the MIC (E. coli ATCC 35218) was greater than 64 µg/mL. For the same compound, the MIC (E. coli ATCC 25922 ΔTolC) was greater than 64 µg/mL.
Compound `NNC(=O)c1ccncc1` [Isoniazid, reference compound] has an MIC [9] of 1 µg/mL.
`C[C@@H]1[C@H](O)[C@@H](C)/C=C/C=C/CC/C=C/C=C/C=C/C=C/C(O[C@H]2O[C@H](C)[C@@H](O)[C@H](N)[C@@H]2O)CC2O[C@](O)(CC(O)C(O)CCC(O)CC(O)CC(O)CC(=O)O[C@H]1C)CC(O)C2C(=O)O` (stereo partly shown) [Nystatin, reference compound] gave an MIC ([1]; F. oxysporum ATCC 7601, potato dextrose broth, 25°C, 100,000 spores/mL, BacTiter-Glo, Iron -, at least triplicate) of 4 µg/mL (≈ 4.32 µM), an MIC (Z. tritici MUCL45407; [10]) of 0.5 µg/mL (≈ 0.54 µM) and an MIC ([2]; A. flavus ATCC 9170, MHIIB, 37°C, 100,000 spores/mL, BacTiter-Glo, Iron -, at least triplicate) of 16 µg/mL (≈ 17.3 µM). It also gave an MIC (Candida albicans FH2173) of 16 µg/mL (≈ 17.3 µM).
